Series [1] deals with HDAC in cells. The series can be described thus: Cellular IC50 (cellular histone hyperacetylation / differential cytotoxicity assays). The series is classed as cell-based. The method, then: These two secondary assays evaluates a compound's ability to inhibit HDAC in cells by measuring cellular histone acetylation levels. The cytoblot facilitates quantitative EC50 information for cellular HDAC inhibition. Transformed cell lines (e.g. HeLa, A549, MCF-7) are cultured under standard media and culture conditions prior to plating.
Cells (approx. 2,500/well) are allowed to adhere 10-24 hours to wells of a 384-well Greiner PS assay plate in media containing 1-5% serum. Cells are treated with appropriate compound and specific concentrations for 0 to 24 hours. Cells are washed once with PBS (60 ul) and then fixed (95% ethanol, 5% acetic acid or 2% PFA) for 1 minute at RT (30 ul). Cells are blocked with 1% BSA for 1 hour and washed and stained with antibody (e.g. anti-Acetylated Histone H3, Upstate Biotechnology), followed by washing and incubation with an appropriate secondary antibody conjugated to HRP or fluorophore. For luminescence assays, signal is generated using Luminol substrate (Santa Cruz Biotechnology) and detected using an Aquest plate reader (Molecular Devices).
HDAC inhibitors display differential cytotoxicity toward certain transformed cell lines. Cells are cultured according to standard ATCC recommended conditions that are appropriate to each cell type. Compounds were tested for their ability to kill different cell types (normal and transformed) using the ATPlite luminescence ATP detection assay system (Perkin Elmer). Assays are run in either 384-well or 1536-well Greiner PS plates. Cells (30 ul or 5 ul, respectively) are dispensed using either multichannel pipette for 384-well plates, or proprietary Kalypsys bulk liquid dispenser for 1536-well plates. Compounds added using proprietary pin-transfer device (500 nL or 5 nL) and incubated 5 to 30 hours prior to analysis. Luminescence is measured using Aquest plate reader (Molecular Devices).

The test system of series [2] is HCT-116 colorectal cancer cells. Kind of series: in vivo. The following applies: for T/C value for efficacy at MTD: daily oral gavage. The procedure:
(§1) 5×10^6 HCT-116 colorectal cancer cells were injected subcutaneously into the right flank of 4-6 week old female nude (nu/nu) mice. […] Tumor burden was determined twice weekly by measurement with calipers in 2-dimensions (length (l)×width (w)) and the volume of spheroid calculated using the formula (l×(w)^2/2). Bodyweight was measured and recorded on same day as tumor volume measurement.

Series [3] can be described thus: in vivo. The following applies: female, mouse, in vivo. The procedure: as §1
The test system of series [4] is HDAC. Kind of series: In vitro HDAC-inhibition assay (Fluor de Lys). The series is classed as biochemical. The method, then: This assay measures a compound's ability to inhibit acetyl-lysine deacetylation in vitro and was used as both a primary screening method as well as for IC50 determinations of confirmed inhibitors. The assay is performed in vitro using an HDAC enzyme source (e.g. partially purified nuclear extract or immunopurified HDAC complexes) and a proprietary fluorescent substrate/developer system (HDAC Quantizyme Fluor de Lys Fluorescent Activity Assay, BIOMOL). The assay is run in 1,536-well Greiner white-bottom plates using the following volumes and order of addition:
Step 1: Enzyme (2.5 ul) source added to plate (from refrigerated container)
Step 2: Compounds (50 nl) added with pin transfer device
Step 3: Fluor de Lys (2.5 ul) substrate added, incubate at RT, 30 minutes
Step 4: Developer (5 ul) solution is added (containing TSA), to stop reaction
Step 5: Plate Reader—data collection
The deacetylated fluorophore is excited with 360 nm light and the emitted light (460 nm) is detected on an automated fluorometric plate reader (Aquest, Molecular Devices).

Where [5] appears, read: 50 mg/kg QD orally, data from another study.

Read-outs that look alike come from different tables or passages of the source.

One may read the IC50 as the concentration that inhibits the measured activity by half. The term T/C denotes the result in the treated group divided by that in the control group, in per cent. For `CC(=O)SCC(=O)c1ccc(NS(=O)(=O)c2ccc3c(c2)OCCO3)nc1` [Example 1], the IC50 in series [1] and in series [4] was at most 1000 nM each time. The Survival in series [2] (setting [5]) was 10/10; in series [2] (100 mg/kg QD orally) it was 8/10; in series [2] (125 mg/kg QD orally), 7/10; in series [2] (175 mg/kg QD orally), 0/10; in series [2] (250 mg/kg QD orally), 2/10. Further, the T/C in series [2] (setting [5]) came out at 53%; in series [2] (100 mg/kg QD orally) it was 42%; in series [2] (125 mg/kg QD orally), 29%; in series [2] (175 mg/kg QD orally) it was 11%; in series [2] (250 mg/kg QD orally), 15%. The “Tolerability (weight loss, mortality)” value in series [2] (50 mg/kg, determined previously) is reported as “well tolerated”. In addition, the “T/C value for efficacy at MTD” value in series [2] was determined as 53%. Also, in series [3] (daily oral gavage, highest dose without lethality or ≧20% bodyweight loss, read-out: Maximum tolerated dose (MTD)), the MTD was under 100 mg/kg.

As for `O=C(CCCCCCC(=O)Nc1ccccc1)NO` [SAHA, reference compound], the T/C in series [2] (setting [5]) was 59%; in series [2] (100 mg/kg QD orally) it was 65%; in series [2] (125 mg/kg QD orally) it was 73%; in series [2] (175 mg/kg QD orally), 41%; in series [2] (250 mg/kg QD orally) it was 52%; in series [2] (350 mg/kg QD orally), 24%. In series [2] (475 mg/kg QD orally), this compound yielded a T/C of 21%. The Lethality entry in series [2] (350 mg/kg daily oral gavage) was “lethality was observed”. Besides, the “T/C value for efficacy at MTD” value in series [2] was 52%. The compound further yielded an MTD in series [3] (nude (nu/nu), po) of 250 mg/kg.

Values taken from patent publication US20070027184A1, “Multicyclic sulfonamide compounds as inhibitors of histone deacetylase for the treatment of disease” (KALYPSYS, INC., priority 2005, published 2007).
